Reference: patent US11274106B2, “Topoisomerase inhibitors with antibacterial and anticancer activity” (THE BOARD OF TRUSTEES OF THE UNIVERSITY OF ILLINOIS, priority 2017, dated 2022)
Where two headings read alike, the source gives them in different places.

What was measured:
Top1 [1] = target: T1, Top1 (Homo sapiens, UniProt P11387); experiment: Top1 DNA relaxation assay (pBR322); assay type: biochemical; conditions: for Inhibition of Top1 relaxation: supercoiled pBR322, FIG. 3b
T1 sequence (P11387 1-765): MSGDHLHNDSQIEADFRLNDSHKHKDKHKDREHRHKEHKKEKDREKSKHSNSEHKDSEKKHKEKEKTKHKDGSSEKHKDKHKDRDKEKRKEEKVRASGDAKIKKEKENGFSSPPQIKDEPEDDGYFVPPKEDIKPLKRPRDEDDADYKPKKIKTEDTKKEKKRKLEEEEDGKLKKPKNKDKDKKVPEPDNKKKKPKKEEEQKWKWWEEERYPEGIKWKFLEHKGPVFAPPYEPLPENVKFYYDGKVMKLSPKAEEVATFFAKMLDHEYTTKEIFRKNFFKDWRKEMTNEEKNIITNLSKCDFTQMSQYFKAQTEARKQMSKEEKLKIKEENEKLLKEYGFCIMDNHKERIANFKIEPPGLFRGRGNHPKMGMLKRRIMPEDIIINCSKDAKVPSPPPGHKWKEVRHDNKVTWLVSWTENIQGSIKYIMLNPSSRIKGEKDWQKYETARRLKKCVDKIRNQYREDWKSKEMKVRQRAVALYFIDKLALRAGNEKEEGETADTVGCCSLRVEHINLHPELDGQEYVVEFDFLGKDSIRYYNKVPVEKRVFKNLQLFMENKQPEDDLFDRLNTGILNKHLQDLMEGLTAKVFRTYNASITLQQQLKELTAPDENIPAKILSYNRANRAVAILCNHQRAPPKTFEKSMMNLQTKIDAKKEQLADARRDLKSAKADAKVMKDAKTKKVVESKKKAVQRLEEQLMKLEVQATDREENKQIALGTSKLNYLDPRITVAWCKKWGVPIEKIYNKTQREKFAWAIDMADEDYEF
Description: (§1) FIG. 3. DNM derivatives are dual Top1/Top2 inhibitors with different modes of inhibition. (a) Inhibition of decatenating ability of Top2α with increasing concentrations of ETP, 6DNM-NH3, 6DNM-Pyr, and Ph-6DNM-NH3. K, kinetoplast DNA; OC, open circular; R, relaxed. (b) Inhibition of relaxing ability of Top1 with increasing concentrations of CPT, 6DNM-NH3, 6DNM-Pyr, and Ph-6DNM-NH3. R, relaxed; S, supercoiled. (c) Detection of Top2a-DNA using the ICE Assay. Genomic DNA ([…]) of H460 cells treated with drugs (50 μM, 30 min) was applied to nitrocellulose membrane and immunoblotted for Top2a. (d) Detection of Top1-DNA adducts using ICE Assay. Same procedure as (c) using 1 μg of DNA. (e) Inhibition of ETP-induced poisoning of Top2a. H460 cells treated with indicated concentrations of inhibitor for 30 min prior to treatment with ETP (50 μM). Detection of Top2α as in (c).
To further investigate any mechanistic differences between these structurally related DNM analogues they were also evaluated against the other clinically-targeted mammalian topoisomerase, Top1, using a DNA relaxation assay in which purified Top1 relaxes supercoiled pBR322 and the two forms are separated by agarose gel electrophoresis.

HeLa = experiment: Antiproliferative SRB assay, HeLa; assay type: cell-based; conditions: Homo sapiens, 72 h, Ovarian cancer (footnote e), mean ± SEM
Description: (§2) Topoisomerase inhibitors such as DOX are used as single agent and in combination therapy to treat a wide-range of cancer types.

Jurkat = experiment: Cell viability Alamar Blue assay, Jurkat; assay type: cell-based; conditions: Homo sapiens, 72 h, Leukemia, mean ± SEM
Description: as §2

Top1 [2] = target: T1, Top1; experiment: Top1 degradation by Western blot, MDA-MB-231; assay type: cell-based; set-up: dose or concentration left out as unconfirmed; conditions: 4, and 6 hours, then 30-minute drug-free media
Method: FIG. 4. Level of Top1-degradation predicts cell line sensitivity. (a) Cells treated with 25 μM of compound for indicated times followed by a 30 minute incubation with drug-free media. Cells were lysed with RIPA and Top1 levels assessed by Western Blot. (b) Degradation of Top1 results in a right-ward shift in the dose-response curve. Effect is most pronounced in Top1-poisons (Ph-6DNM-NH3, CPT) than Top1 catalytic inhibitor (6DNM-Pyr). Cell death measured by SRB assay after 72 hour of compound exposure (n≥3 biological replicates, error bars show SEM).
This difference in mechanism of action between Ph-6DNM-NH3 and 6DNM-Pyr may provide an explanation of the differences in cell line sensitivities between the different DNM derivatives. […] This downregulation serves as a resistance mechanism and the level of Top1 degradation is correlated with reduced sensitivity to CPT. To determine if a similar mechanism is responsible for the reduced sensitivity to Ph-6DNM-NH3 and its derivatives in certain cell lines, the effects of Ph-6DNM-NH3 and 6DNM-Pyr were compared to that of CPT in […] and BT-474, two cancer cell lines known to be deficient and proficient in Top1 degradation, respectively. Cells were treated with 50 μM Ph-6DNM-NH3, 6DNM-Pyr, or CPT for 2, 4, and 6 hours. Following a 30-minute incubation with drug-free media to allow for the reversal of any Top1cc formed, cells were lysed and Top1 concentrations assessed by Western blot (FIG. 4a).

panel of cancer cells = experiment: Average over panel of 10 cancer cell lines; assay type: cell-based; conditions: 72 hour, read-out: Average (mean) IC50 over the cell line panel
Description: as §2

[3] = tested on: MDA-MB-231 triple negative breast cancer cells; experiment: Antiproliferative SRB assay, MDA-MB-231; assay type: cell-based; conditions: for IC50: SRB assay, mean ± SEM
Method: FIG. 1. […] Cell death measured by SRB assay after 72 hour of compound exposure (n≥3 biological replicates, error bars show SEM). IC50 values given as mean±SEM from ≥3 biological replicates.
To investigate the feasibility of developing a class of antitumor antibiotics based upon the DNM scaffold, the ability of the DNM to exert an antiproliferative effect against MDA-MB-231 breast cancer cells was evaluated.

Top2cc = target: T2, Top2cc (Homo sapiens, UniProt P11388); experiment: ICE assay for Top2α-DNA complexes in H460 cells; assay type: cell-based; conditions: for Accumulation of Top2cc (ICE assay): 50 μM; for Effect on ETP-induced Top2cc: pre-treatment 30 minutes prior to ETP (50 μM)
T2 construct: endogenous in cells; host or cells: H460
T2 sequence (P11388 whole entry): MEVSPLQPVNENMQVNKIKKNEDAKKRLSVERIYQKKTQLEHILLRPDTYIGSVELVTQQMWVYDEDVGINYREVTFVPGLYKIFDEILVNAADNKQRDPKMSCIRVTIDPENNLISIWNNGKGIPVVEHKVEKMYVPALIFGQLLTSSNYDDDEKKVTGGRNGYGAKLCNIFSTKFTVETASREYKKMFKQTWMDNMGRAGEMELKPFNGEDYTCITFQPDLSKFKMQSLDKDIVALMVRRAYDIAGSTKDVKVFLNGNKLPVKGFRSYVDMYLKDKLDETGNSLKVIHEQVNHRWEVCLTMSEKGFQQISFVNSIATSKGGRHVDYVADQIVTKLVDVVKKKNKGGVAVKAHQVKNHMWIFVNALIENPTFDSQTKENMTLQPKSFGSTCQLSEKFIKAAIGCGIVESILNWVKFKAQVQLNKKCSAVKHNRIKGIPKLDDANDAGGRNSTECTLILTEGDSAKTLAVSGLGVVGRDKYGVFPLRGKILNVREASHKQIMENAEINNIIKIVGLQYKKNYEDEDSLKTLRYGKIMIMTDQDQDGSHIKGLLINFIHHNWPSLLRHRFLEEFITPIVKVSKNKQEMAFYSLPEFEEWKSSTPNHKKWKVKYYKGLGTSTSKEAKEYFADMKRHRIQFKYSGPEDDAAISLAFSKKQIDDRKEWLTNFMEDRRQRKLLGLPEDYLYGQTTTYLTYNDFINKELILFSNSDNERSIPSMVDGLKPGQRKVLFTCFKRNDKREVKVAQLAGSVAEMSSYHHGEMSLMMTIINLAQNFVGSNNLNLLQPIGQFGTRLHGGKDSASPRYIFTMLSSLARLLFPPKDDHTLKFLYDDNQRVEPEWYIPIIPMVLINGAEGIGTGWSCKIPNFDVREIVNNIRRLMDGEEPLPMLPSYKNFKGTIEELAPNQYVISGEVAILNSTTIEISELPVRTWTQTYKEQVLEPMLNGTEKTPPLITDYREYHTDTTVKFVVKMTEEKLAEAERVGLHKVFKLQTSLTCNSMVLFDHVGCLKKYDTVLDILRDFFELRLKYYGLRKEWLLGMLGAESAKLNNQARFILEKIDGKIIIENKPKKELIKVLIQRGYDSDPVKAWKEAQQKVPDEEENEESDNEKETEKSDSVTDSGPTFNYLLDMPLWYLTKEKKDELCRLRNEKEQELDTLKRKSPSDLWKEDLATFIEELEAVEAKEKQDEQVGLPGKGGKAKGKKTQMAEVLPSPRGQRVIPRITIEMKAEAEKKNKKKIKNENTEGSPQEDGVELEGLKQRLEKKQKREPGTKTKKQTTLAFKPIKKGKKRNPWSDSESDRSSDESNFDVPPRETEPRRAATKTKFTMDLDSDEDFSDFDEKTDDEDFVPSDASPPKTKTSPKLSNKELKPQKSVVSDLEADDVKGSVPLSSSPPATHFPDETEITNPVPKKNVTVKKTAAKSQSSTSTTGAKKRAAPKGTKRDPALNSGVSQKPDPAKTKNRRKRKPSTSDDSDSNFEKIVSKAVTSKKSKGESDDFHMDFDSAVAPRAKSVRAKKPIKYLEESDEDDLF
Description: as §1
The in vivo complex of enzyme (ICE) assay can be used to distinguish poisons from catalytic inhibitors. The ICE assay consists of isolating the genomic DNA of cells treated with small molecules in a manner the preserves covalent DNA-protein complexes and applying it to nitrocellulose membranes. Because topoisomerase poisons stabilize the cleavage complexes, DNA-protein complexes can be detected by immunoblotting for specific topoisomerases, whereas catalytic inhibitors produce no such result. To determine if DNM derivatives are acting as poisons or catalytic inhibitors, H460 human lung cells were exposed to 50 μM of the Top2 poison ETP, Ph-6DNM-NH3, 6DNM-NH3, and 6DNM-Pyr and assessed for their ability to stabilize Top2cc. […] In a similar fashion, next investigated was the mode of Top1 inhibition using the ICE assay (FIG. 3b).

[4] = Homo sapiens, MDA-MB-231, 72 h, Breast cancer, read-out: 72 hour IC50, MDA-MB-231

Compound	Fold less potent Top1 inhibitor than 6DNM-Pyr (Top1 [1]; DNA relaxation assay)	Inhibition of Top1 relaxation (Top1 [1])	IC50 (HeLa)	IC50 (Jurkat)	Top1 levels by Western blot in MDA-MB-231 (Top1 [2])	IC50 (panel of cancer cells)	IC50 [3, 4]	Improvement in potency relative to 6DNM-NH3 ([3]; MDA-MB-231, Table 1)	IC50 ([3]; 72 hour compound exposure, read-out: MDA-MB-231 IC50)	Accumulation of Top2cc (ICE assay) (Top2cc)	Effect on ETP-induced Top2cc (Top2cc)	IC50 ([3]; Homo sapiens, MDA-MB-231, 72 h, 72 hour compound exposure, read-out: MDA-MB-231 IC50)
Cc1cc(=O)n2c3c(c4c(cc13)c1ccccc1c(=O)n4C)OCC2CN (centres unmarked) [Compound 15]	more than 20 fold	approximately equipotent to the known Top1 inhibitor camptothecin	56 ± 5 nM	290 ± 30 nM	minimal differences in Top1 relative to untreated cells	164 nM	30 ± 6 nM	4.5 fold	48 ± 8 nM	only ETP treatment resulted in the accumulation of Top2cc	dose-dependent decrease in ETP-induced Top2cc	–
Cc1cc(=O)n(C)c2c3c4c(cc12)c(C)cc(=O)n4C(CN1CCCC1)CO3 (centres unmarked) [Compound 20]	–	inhibit relaxation at submicromolar concentrations	27 ± 1 nM	20 ± 6 nM	minimal differences in Top1 relative to untreated cells	25 nM	14 ± 1 nM	–	–	only ETP treatment resulted in the accumulation of Top2cc	dose-dependent decrease in ETP-induced Top2cc	14 ± 1 nM
